Source: patent publication US8618289B2 (Ambit Biosciences Corporation, priority 2008, dated 2013)
pEC50, pIC50, pKd: −log10 of the molar value. Where two headings read alike, the source gives them in different places.

Columns and labels:
RAF kinases [1] = target: T1, RAF kinases (Homo sapiens, UniProt P15056, V600E); settings: read-out: BRAF V600E Kd; BRAF V600E
Description: (§1) Competition binding assays used herein were developed, validated and performed as described in Fabian et al., Nature Biotechnology 2005, 23, 329-336. […] The liganded beads were blocked with excess biotin and washed with blocking buffer (SeaBlock (Pierce), 1% BSA, 0.05% Tween 20, 1 mM DTT) to remove unbound ligand and to reduce non-specific binding. […] Test compounds were prepared as 100× stocks in DMSO and rapidly diluted into the aqueous environment. DMSO was added to control assays lacking a test compound. Primary screen interactions were performed in polypropylene 384-well plates in a final volume of 34 μt, while Kd determinations were performed in polystyrene 96-well plates in a final volume of 135 pt. […] The kinase concentration in the eluates was measured by quantitative PCR. Each kinase was tested individually against each compound. Kds were determined using eleven serial threefold dilutions. A selectivity score, which is a quantitative measure of selectivity of a compound against a panel of enzymes, may be calculated for a compound by dividing the number of enzymes for which a compound meets a set criteria, (for example, a binding constant of 100 nM or less), by the total number of enzymes tested. […] (Note, for those compounds tested in a larger kinase panel, as indicated by an asterisk (*) next to the S35 score, the divisor is 321 (i.e. the larger panel contains 321 distinct kinases, excluding mutant variants.)).

RAF kinases [2] = target: T2, RAF kinases (Homo sapiens, UniProt P15056); settings: read-out: BRAF WT Kd; BRAF WT
Description: as §1

RAF kinases [3] = target: T3, RAF kinases (Homo sapiens, UniProt P04049); settings: read-out: RAF1 Kd; RAF1
T3 sequence (P04049 whole entry): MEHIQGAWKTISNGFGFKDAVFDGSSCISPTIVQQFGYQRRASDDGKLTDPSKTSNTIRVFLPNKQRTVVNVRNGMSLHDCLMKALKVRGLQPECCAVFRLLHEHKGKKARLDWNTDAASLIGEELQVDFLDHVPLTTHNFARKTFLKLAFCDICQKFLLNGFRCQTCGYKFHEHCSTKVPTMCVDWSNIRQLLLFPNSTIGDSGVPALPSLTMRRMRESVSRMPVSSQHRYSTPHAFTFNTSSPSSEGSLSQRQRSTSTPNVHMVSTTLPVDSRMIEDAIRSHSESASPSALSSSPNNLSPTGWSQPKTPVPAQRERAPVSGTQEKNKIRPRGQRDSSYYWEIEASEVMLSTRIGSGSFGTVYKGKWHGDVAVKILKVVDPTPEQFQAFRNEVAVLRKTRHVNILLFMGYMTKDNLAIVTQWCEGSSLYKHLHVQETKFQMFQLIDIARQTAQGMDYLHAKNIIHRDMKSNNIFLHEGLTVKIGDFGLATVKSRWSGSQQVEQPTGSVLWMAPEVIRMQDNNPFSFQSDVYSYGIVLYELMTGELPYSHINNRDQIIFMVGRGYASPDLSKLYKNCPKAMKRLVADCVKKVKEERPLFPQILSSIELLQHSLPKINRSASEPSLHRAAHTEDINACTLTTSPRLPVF
Description: as §1

[4] = tested on: MEK1 phosphorylation in the A375 human melanoma cell line; assay: cells; settings: A-375, read-out: pMEK IC50
A375 cells = assay: cells; settings: Homo sapiens, A-375, read-out: A375 Viability EC50
RAF kinases [5] = target: T1, RAF kinases; assay: biochemical
Description: as §1

RAF kinases [6] = target: T3, RAF kinases; assay: biochemical
Description: as §1

RAF kinases [7] = target: T2, RAF kinases; assay: biochemical
Description: as §1

T1 sequence (P15056 whole entry V600E): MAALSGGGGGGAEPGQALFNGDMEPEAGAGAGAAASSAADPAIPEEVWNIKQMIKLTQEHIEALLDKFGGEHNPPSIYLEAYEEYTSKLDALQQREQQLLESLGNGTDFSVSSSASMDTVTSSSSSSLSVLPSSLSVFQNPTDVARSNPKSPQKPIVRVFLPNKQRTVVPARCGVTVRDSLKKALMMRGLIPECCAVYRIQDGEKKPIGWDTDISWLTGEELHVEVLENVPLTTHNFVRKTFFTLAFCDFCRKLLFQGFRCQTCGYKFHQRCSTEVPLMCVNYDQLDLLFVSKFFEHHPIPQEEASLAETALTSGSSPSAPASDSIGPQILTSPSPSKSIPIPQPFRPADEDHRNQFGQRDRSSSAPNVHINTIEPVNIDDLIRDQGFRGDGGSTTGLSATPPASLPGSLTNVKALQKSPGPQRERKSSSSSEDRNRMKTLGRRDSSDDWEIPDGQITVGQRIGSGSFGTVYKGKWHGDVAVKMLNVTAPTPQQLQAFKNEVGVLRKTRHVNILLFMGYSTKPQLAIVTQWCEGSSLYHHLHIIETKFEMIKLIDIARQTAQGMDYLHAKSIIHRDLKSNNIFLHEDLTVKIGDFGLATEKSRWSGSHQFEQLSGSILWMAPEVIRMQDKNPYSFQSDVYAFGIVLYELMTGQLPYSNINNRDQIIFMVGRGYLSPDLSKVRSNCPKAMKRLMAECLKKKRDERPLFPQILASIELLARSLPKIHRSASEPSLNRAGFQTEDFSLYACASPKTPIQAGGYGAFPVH
T2 sequence (P15056 whole entry): as the sequence (P15056 whole entry V600E) above, with E600V counted along it

SMILES | pKd (RAF kinases [1]) | pKd (RAF kinases [2]) | pKd (RAF kinases [3]) | pIC50 [4] | pEC50 (A375 cells) | pKd (RAF kinases [5]) | pKd (RAF kinases [6]) | pKd (RAF kinases [7])
COc1cc2ncnc(Oc3cccc(NC(=O)Nc4cc(C(C)(C)C)on4)c3C)c2cc1OC [Ex290, 1-(5-tert-butylisoxazol-3-yl)-3-(3-(6,7-dimethoxyquinazolin-4-yloxy)-2-methylphenyl)urea] | > 6.60 | > 6.60 | > 6.60 | > 6.60 | 6.30 to 6.60 | – | – | –
COc1cc2ncnc(Oc3cc(NC(=O)Nc4cc(C(C)(C)F)no4)ccc3F)c2cc1OC [Ex293, 1-(3-(6,7-dimethoxyquinazolin-4-yloxy)-4-fluorophenyl)-3-(3-(2-fluoropropan-2-yl)isoxazol-5-yl)urea] | > 6.60 | > 6.60 | > 6.60 | > 6.60 | 6.30 to 6.60 | – | – | –
COCCOc1cc2ncnc(Oc3cccc(NC(=O)Nc4cc(C(C)C)on4)c3)c2cc1OC [Ex 206, 1-(5-isopropylisoxazol-3-yl)-3-(3-(6-methoxy-7-(2-methoxyethoxy)quinazolin-4-yloxy)phenyl)urea] | > 6.60 | > 6.60 | > 6.60 | 6.00 to 6.30 | < 6.00 | – | – | –
COCCOc1cc2ncnc(Oc3cccc(NC(=O)Nc4cc(C(F)(F)F)n(C)n4)c3)c2cc1OC [Ex 208, 1-{3-[6-methoxy-7-(2-methoxyethoxy)quinazolin-4-yloxy]phenyl}-3-[1-methyl-5-(trifluoromethyl)-1H-pyrazol-3-yl]urea] | > 6.60 | > 6.60 | > 6.60 | < 6.00 | < 6.00 | – | – | –
COCCOc1cc2ncnc(Oc3cccc(NC(=O)Nc4cc(C5CC5)no4)c3)c2cc1OC [Ex 214, 1-(3-cyclopropylisoxazol-5-yl)-3-(3-(6-methoxy-7-(2-methoxyethoxy)quinazolin-4-yloxy)phenyl)urea] | > 6.60 | > 6.60 | > 6.60 | < 6.00 | < 6.00 | – | – | –
COCCOc1cc2ncnc(Oc3cccc(NC(=O)Nc4ccc(C(F)(F)F)c(OC)c4)c3)c2cc1OC [Ex 223, 1-(3-methoxy-4-(trifluoromethyl)phenyl)-3-(3-(6-methoxy-7-(2-methoxyethoxy)quinazolin-4-yloxy)phenyl)urea] | – | < 6.00 | – | < 6.00 | < 6.00 | 6.30 to 6.60 | 6.00 to 6.30 | –
COCCOc1cc2ncnc(Sc3cccc(NC(=O)Nc4cc(C(C)(C)C)nn4-c4ccccc4)c3)c2cc1OC [Ex 236, 1-(3-tert-butyl-1-phenyl-1H-pyrazol-5-yl)-3-(3-(6-methoxy-7-(2-methoxyethoxy)quinazolin-4-ylthio)phenyl)urea] | < 6.00 | < 6.00 | < 6.00 | > 6.60 | – | – | – | –
COc1cc2ncnc(Sc3cccc(NC(=O)Nc4cc(C(C)(C)F)no4)c3)c2cc1OCCCN1CCS(=O)(=O)CC1 [Ex 245, 1-(3-(2-fluoropropan-2-yl)isoxazol-5-yl)-3-(3-(7-methoxy-6-(4,4-dioxo-3-thiomorpholinopropoxy)quinazolin-4-ylthio)phenyl)urea] | > 6.60 | > 6.60 | – | > 6.60 | < 6.00 | – | 6.30 to 6.60 | –
COc1cc2c(Oc3cccc(NC(=O)Nc4cc(C(C)(C)F)no4)c3)ncnc2cc1OCCN1CCOCC1 [Ex 251, 1-(3-(2-fluoropropan-2-yl)isoxazol-5-yl)-3-(3-(6-methoxy-7-(2-morpholinoethoxy)quinazolin-4-yloxy)phenyl)urea] | > 6.60 | > 6.60 | – | 6.30 to 6.60 | < 6.00 | – | 6.30 to 6.60 | –
COc1cc2ncnc(Oc3cccc(NC(=O)Nc4cc(C(F)(F)F)no4)c3)c2cc1OC [Ex 254, 1-(3-(6,7-dimethoxyquinazolin-4-yloxy)phenyl)-3-(3-(trifluoromethyl)isoxazol-5-yl)urea] | > 6.60 | – | > 6.60 | < 6.00 | < 6.00 | – | – | 6.30 to 6.60
COc1cc2ncnc(Oc3cccc(NC(=O)Nc4cc(C(C)(C)C(F)(F)F)on4)c3)c2cc1OC [Ex 259, 1-(3-(6,7-dimethoxyquinazolin-4-yloxy)phenyl)-3-(5-(1,1,1-trifluoro-2-methylpropan-2-yl)isoxazol-3-yl)urea] | > 6.60 | – | > 6.60 | > 6.60 | > 6.60 | – | – | > 6.60
COc1cc2ncnc(Oc3cccc(NC(=O)Nc4cc(C(C)(C)C(F)(F)F)on4)c3F)c2cc1OC [Ex 265, 1-(3-(6,7-dimethoxyquinazolin-4-yloxy)-2-fluorophenyl)-3-(5-(1,1,1-trifluoro-2-methylpropan-2-yl)isoxazol-3-yl)urea] | > 6.60 | – | > 6.60 | > 6.60 | 6.30 to 6.60 | – | – | 6.30 to 6.60
COc1cc2ncnc(Oc3cc(NC(=O)Nc4cc(C(C)(C)C(F)(F)F)on4)ccc3F)c2cc1OC [Ex 266, 1-(3-(6,7-dimethoxyquinazolin-4-yloxy)-4-fluorophenyl)-3-(5-(1,1,1-trifluoro-2-methylpropan-2-yl)isoxazol-3-yl)urea] | > 6.60 | > 6.60 | > 6.60 | > 6.60 | – | – | – | –
COCCOc1cc2ncnc(Oc3cccc(NC(=O)Nc4cc(C(C)(C)C)nn4-c4ccc(C)cc4)c3)c2cc1OC [Ex 276, 1-(3-tert-butyl-1-p-tolyl-1H-pyrazol-5-yl)-3-(3-(6-methoxy-7-(2-methoxyethoxy)quinazolin-4-yloxy)phenyl)urea] | > 6.60 | < 6.00 | < 6.00 | > 6.60 | – | – | – | –
COc1cc2ncnc(Oc3cccc(NC(=O)Nc4cc(C(C)(C)C)nn4-c4ccccc4)c3C)c2cc1OC [Ex 289, 1-(3-tert-butyl-1-phenyl-1H-pyrazol-5-yl)-3-(3-(6,7-dimethoxyquinazolin-4-yloxy)-2-methylphenyl)urea] | > 6.60 | < 6.00 | – | > 6.60 | 6.00 to 6.30 | – | 6.00 to 6.30 | –
COc1cc2ncnc(Oc3cc(NC(=O)Nc4cc(C(C)(CF)CF)on4)ccc3F)c2cc1OC [Ex 294, 1-(5-(1,3-difluoro-2-methylpropan-2-yl)isoxazol-3-yl)-3-(3-(6,7-dimethoxyquinazolin-4-yloxy)-4-fluorophenyl)urea] | > 6.60 | > 6.60 | > 6.60 | > 6.60 | – | – | – | –
COc1cc2ncnc(Oc3cccc(NC(=O)Nc4cc(C(C)(C)C)nn4-c4ccccc4)c3F)c2cc1OC [Ex 295, 1-(3-tert-butyl-1-phenyl-1H-pyrazol-5-yl)-3-(3-(6,7-dimethoxyquinazolin-4-yloxy)-2-fluorophenyl)urea] | > 6.60 | < 6.00 | – | 6.00 to 6.30 | < 6.00 | – | 6.00 to 6.30 | –
COc1cc2ncnc(Sc3cccc(NC(=O)Nc4cc(C5CCC5)nn4-c4ccccc4)c3)c2cc1OC [Ex 356, 1-(3-cyclobutyl-1-phenyl-1H-pyrazol-5-yl)-3-(3-(6,7-dimethoxyquinazolin-4-ylthio)phenyl)urea] | > 6.60 | < 6.00 | – | 6.30 to 6.60 | > 6.60 | – | 6.00 to 6.30 | –
COc1cc2ncnc(Oc3cccc(NC(=O)Nc4cc(C(C)(C)C)nn4Cc4ccccc4)c3)c2cc1OC [Ex 357, 1-(1-benzyl-3-tert-butyl-1H-pyrazol-5-yl)-3-(3-(6,7-dimethoxyquinazolin-4-yloxy)phenyl)urea] | > 6.60 | – | < 6.00 | 6.30 to 6.60 | < 6.00 | – | – | 6.00 to 6.30
COc1cc2ncnc(Sc3cccc(NC(=O)Nc4cc(C(C)(C)C)nn4Cc4ccccc4)c3)c2cc1OC [Ex 358, 1-(1-benzyl-3-tert-butyl-1H-pyrazol-5-yl)-3-(3-(6,7-dimethoxyquinazolin-4-ylthio)phenyl)urea] | > 6.60 | < 6.00 | < 6.00 | 6.30 to 6.60 | – | – | – | –
COc1cc2ncnc(Oc3cccc(NC(=O)Nc4cc(C(C)(C)C)nn4-c4cccc(F)c4)c3)c2cc1OC [Ex 359, 1-(3-tert-butyl-1-(3-fluorophenyl)-1H-pyrazol-5-yl)-3-(3-(6,7-dimethoxyquinazolin-4-yloxy)phenyl)urea] | > 6.60 | < 6.00 | < 6.00 | > 6.60 | – | – | – | –
COc1cc2ncnc(Oc3cccc(NC(=O)Nc4cc(C(C)(C)C)nn4-c4ccc(C(C)(C)C)cc4)c3)c2cc1OC [Ex 369, 1-(3-tert-butyl-1-(4-tert-butylphenyl)-1H-pyrazol-5-yl)-3-(3-(6,7-dimethoxyquinazolin-4-yloxy)phenyl)urea] | > 6.60 | – | < 6.00 | > 6.60 | < 6.00 | – | – | 6.00 to 6.30
COc1cc2ncnc(Sc3cccc(NC(=O)Nc4cc(C(C)(C)C)nn4-c4ccc(C(C)(C)C)cc4)c3)c2cc1OC [Ex 370, 1-(3-tert-butyl-1-(4-tert-butylphenyl)-1H-pyrazol-5-yl)-3-(3-(6,7-dimethoxyquinazolin-4-ylthio)phenyl)urea] | > 6.60 | < 6.00 | < 6.00 | > 6.60 | – | – | – | –
COc1cc2ncnc(Sc3cccc(NC(=O)Nc4cc(C(C)(C)C#N)no4)c3)c2cc1OC [Ex 381, 1-(3-(2-cyanopropan-2-yl)isoxazol-5-yl)-3-(3-(6,7-dimethoxyquinazolin-4-ylthio)phenyl)urea] | > 6.60 | > 6.60 | > 6.60 | > 6.60 | – | – | – | –
COc1cc2ncnc(Oc3cc(NC(=O)Nc4cc(C(F)(F)F)nn4-c4ccccc4)ccc3F)c2cc1OC [Ex 397, 1-(3-(6,7-Dimethoxyquinazolin-4-yloxy)-4-fluorophenyl)-3-(1-phenyl-3-(trifluoromethyl)-1H-pyrazol-5-yl)urea] | > 6.60 | < 6.00 | – | > 6.60 | 6.30 to 6.60 | – | 6.00 to 6.30 | –
